PubChem BioAssay AID1996
Converted amounts (≈) assume the structure as drawn.

Conditions: buffer; pH 7.4; 200.0 µM

SMILES | solubility kinetic [µg/mL]
Cc1ccc(Nc2c([N+](=O)[O-])c(=O)oc3ccccc23)cc1 | 5.8 (≈ 19.6 µM)
Cn1c(=O)c([N+](=O)[O-])c(NCCCn2ccnc2)c2ccccc21 | > 49.1
O=C(CN1C(=O)C2C3CCC(C3)C2C1=O)OCC(=O)c1ccccc1 (stereo not given) | 48.1 (≈ 141 µM)
CC1CCCC(C)N1C(=S)SCC(=O)O (stereo not given) | > 37.1
N#C/C(=C\c1ccccc1)C(=O)Nc1ccccn1 | > 37.4
COc1ccc(NC(=O)NC2CCCc3ccccc32)cc1OC (stereo not given) | 1.1 (≈ 3.37 µM)
O=c1c(Cc2ccccc2)c(O)ccn1Cc1ccco1 | 25.9 (≈ 92.1 µM)
O=C(c1ccc(Cl)c(S(=O)(=O)N2CCOCC2)c1)N1CCCCCC1 | 52.2 (≈ 135 µM)
O=C(COC(=O)/C=C/c1cccs1)NC1CCCCC1 | 9.4 (≈ 32 µM)
COc1ccc(CC(CC(=O)O)C(=O)NCc2ccccc2)cc1 (stereo not given) | 48.6 (≈ 148 µM)
CCOc1ccc(Nc2nc3c(C)cccc3cc2C#N)cc1 | < 0.2
COC(=O)c1ccc(CNC(=O)CSc2nc3ccccc3[nH]2)cc1 | 11.6 (≈ 32.6 µM)
O=C(Cc1c(F)cccc1Cl)OCC(=O)c1ccc[nH]1 | 26.1 (≈ 88.3 µM)
CCC1CCCCN1C(=O)CSc1nc2ncccc2[nH]1 (stereo not given) | > 45.7
Cl.c1ccc2c(c1)CN1CCCC1=N2 | > 31.3
CCN(c1cccc(C)c1)S(=O)(=O)c1ccc(OC)c([N+](=O)[O-])c1 | < 0.4
CNC(=O)CCCN1C(=O)c2ccccc2Sc2ncccc21 | > 49.1
CC(=O)Nc1ccc(S(=O)(=O)NC2C3(C)CCC(C3)C2(C)C)cc1 (stereo not given) | < 0.4
CCOC(=O)c1oc2nc3c(cc2c1N)CCCC3 | 10.4 (≈ 40 µM)
O=[N+]([O-])c1ccccc1/C=C/CN1CCCC(CO)C1 (stereo not given) | 33.2 (≈ 120 µM)

SMILES | solubility kinetic [µg/mL]
Cc1ccc(S(=O)(=O)N2C(=O)CCC2C(N)=O)cc1 (stereo not given) | > 42.3
CSc1ccccc1NC(=O)Cn1c([N+](=O)[O-])cnc1C | 41.5 (≈ 135 µM)
CC(CN1CCCCC1)OC(=O)c1ccco1.Cl (stereo not given) | > 41.1
CC(=O)c1ccc(S(=O)(=O)NCc2cccnc2)cc1 | > 43.6
CN(CC(=O)Nc1ccccc1C(=O)Nc1ccccc1)C1CCCCC1 | 2.4 (≈ 6.57 µM)
Cc1c(Cl)cccc1NC(=S)NCc1ccco1 | 40.1 (≈ 143 µM)
CCCCOc1ccc(S(=O)(=O)N2CCCCC2)cc1 | 1.1 (≈ 3.7 µM)
COC(=O)c1ccc(C2NC(=O)c3c(sc(C)c3C)N2)cc1 (stereo not given) | 14.5 (≈ 45.8 µM)
CC(C)C(C)NC(=O)COc1ncnc2sccc12 (stereo not given) | > 41.9
Cc1cc(C)cc(NC2=NCCCS2)c1 | 32.1 (≈ 146 µM)
c1ccc(-c2ncc(CN3CCN(c4ccccn4)CC3)[nH]2)cc1 | 45.2 (≈ 142 µM)
CCOc1ccc(C(=O)NCC(=O)NCCOc2ccc(C)cc2)cc1 | 10.4 (≈ 29.2 µM)
CCC(CC)C(=O)Nc1cccc(C(=O)NCCc2ccccc2)c1 | 40.8 (≈ 121 µM)
CN(CC(=O)NC1CCCCCCC1)S(=O)(=O)c1cnc[nH]1 | > 49.3
O=C(COc1cccnc1[N+](=O)[O-])Nc1ccc(Cl)cc1F | 4.6 (≈ 14.1 µM)
Cc1ccc(CNC(=O)[C@@H](NC(=O)Cc2ccccc2)C(C)C)cc1 | 7.4 (≈ 21.9 µM)
COc1cc(S(=O)(=O)N2CCCN(C)CC2)ccc1NC(C)=O | > 51.2
Cc1ccc(C(=O)OCC(=O)c2ccc[nH]2)s1 | > 37.4
Fc1ccc2nc(Nc3ccccc3)sc2c1 | 0.5 (≈ 2.05 µM)
O=C(NCCCN1CCCC1=O)Nc1ccc([N+](=O)[O-])cc1 | > 45.9

SMILES | solubility kinetic [µg/mL]
O=S(=O)(c1c(F)cccc1F)N1CCCC2CCCCC21 (stereo not given) | 13.3 (≈ 42.2 µM)
O=C(COC(=O)c1ccc(O)cc1)NC(c1ccccc1)c1ccccc1 | 1.7 (≈ 4.7 µM)
Cc1cc(NC(=O)c2ccc(C)o2)no1 | > 30.9
O=c1c(NCCc2ccccc2)c(-c2ccccc2)c1=O | < 0.6
COc1ccc(NC(=O)CNC(=O)c2c(C)nn(C)c2Cl)cc1 | > 50.5
Cc1cccc(NC(=O)CN(C)C(=O)C2CCCC2)c1C | > 43.3
COc1ccc(C(=O)NCCCN2CCOCC2)cc1 | > 41.8
Cc1ccc(C2NC(=S)NC3=C2C(=O)CCC3)cc1 (stereo not given) | 9 (≈ 33 µM)
CN(C)C(=O)c1ccccc1NC(=O)Cc1cccc2ccccc12 | 49.8 (≈ 150 µM)
O=C(CN1CCC(NC(=O)Nc2ccccc2)CC1)Nc1ccccc1F | 17.5 (≈ 47.2 µM)
CC(=O)Nc1ccccc1C(=O)OCc1ccccc1F | 32 (≈ 111 µM)
CCOc1ccc(C(=S)N2CCCC2)cc1OCC | 41.8 (≈ 150 µM)
CCNc1nc(SCC(N)=O)nc2sc3c(c12)CCN(C)C3 | > 50.6
Cc1cccc(CSCc2ccc(C(=O)NC3CCCC3)o2)c1 | 25.6 (≈ 77.7 µM)
COc1ccc(S(=O)(=O)N2CCCc3ccccc32)cc1[N+](=O)[O-] | 9.7 (≈ 27.8 µM)
CCC(C)NS(=O)(=O)c1cc2c3c(c1)CCN3C(=O)CC2 (stereo not given) | > 46.3
O=c1oc2ccccc2c(NCCO)c1[N+](=O)[O-] | > 37.5
Cc1ccc(-c2nc3ncccc3n2O)cc1 | > 33.8
Cn1cc(C(O)CN2CCCCC2)c2ccccc21 (stereo not given) | 38.1 (≈ 147 µM)
CN(C)c1ccc(CNc2ncnc3sccc23)cc1 | 29.7 (≈ 104 µM)
